One data set concerns the target T1, HDAC6 human recombinant (Homo sapiens, UniProt Q9UBN7).
T1 construct: purchased Enzo Life Science BML-AK516
T1 sequence (Q9UBN7 1-1215): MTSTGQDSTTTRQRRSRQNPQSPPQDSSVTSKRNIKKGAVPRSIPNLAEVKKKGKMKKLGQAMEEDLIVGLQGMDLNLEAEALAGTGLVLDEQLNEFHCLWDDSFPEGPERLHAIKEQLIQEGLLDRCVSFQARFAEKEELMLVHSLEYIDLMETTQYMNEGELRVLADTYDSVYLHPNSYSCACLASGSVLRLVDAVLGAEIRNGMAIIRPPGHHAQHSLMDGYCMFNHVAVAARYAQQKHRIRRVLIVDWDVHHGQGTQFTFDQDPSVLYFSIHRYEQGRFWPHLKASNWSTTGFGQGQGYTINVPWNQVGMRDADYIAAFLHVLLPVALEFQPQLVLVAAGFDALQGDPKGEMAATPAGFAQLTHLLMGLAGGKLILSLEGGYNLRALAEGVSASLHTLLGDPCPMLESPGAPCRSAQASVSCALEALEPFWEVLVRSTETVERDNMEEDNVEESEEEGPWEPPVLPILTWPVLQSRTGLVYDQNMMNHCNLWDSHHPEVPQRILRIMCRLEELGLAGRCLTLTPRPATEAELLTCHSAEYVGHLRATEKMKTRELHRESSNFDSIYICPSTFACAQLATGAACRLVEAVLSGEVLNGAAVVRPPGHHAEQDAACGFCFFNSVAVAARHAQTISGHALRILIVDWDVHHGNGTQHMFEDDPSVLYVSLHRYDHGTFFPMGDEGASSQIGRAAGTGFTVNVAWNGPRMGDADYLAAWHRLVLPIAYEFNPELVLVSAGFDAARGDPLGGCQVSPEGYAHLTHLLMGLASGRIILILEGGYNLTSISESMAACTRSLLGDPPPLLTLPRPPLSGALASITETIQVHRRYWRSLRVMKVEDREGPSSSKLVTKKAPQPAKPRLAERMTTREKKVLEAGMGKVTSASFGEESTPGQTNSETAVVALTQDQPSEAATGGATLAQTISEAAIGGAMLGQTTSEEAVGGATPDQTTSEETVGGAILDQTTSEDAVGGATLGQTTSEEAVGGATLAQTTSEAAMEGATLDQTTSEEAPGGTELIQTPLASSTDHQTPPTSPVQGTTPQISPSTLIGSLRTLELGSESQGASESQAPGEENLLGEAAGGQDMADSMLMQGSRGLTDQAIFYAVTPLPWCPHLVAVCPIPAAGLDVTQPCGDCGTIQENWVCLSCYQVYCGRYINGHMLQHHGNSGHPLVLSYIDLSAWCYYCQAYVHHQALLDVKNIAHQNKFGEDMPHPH
Nature of the data set: HDAC6 inhibitory activity, fluorometric kit. In kind it is biochemical. The note with it: Class II.

In data set [1] the test system is HDACs HeLa cells nuclear extract. Nature of the data set: HDAC inhibitory activity, fluorometric kit, HeLa cell nuclear extract. The format is biochemical, human. The note with it: HeLa cell nuclear extract as HDAC source.
Data set [2] in a line: Cytotoxicity assay (Alamar Blue) in cardiac fibroblasts. In kind it is cell-based, rat. The note with it: Sprague-Dawley, rat, primary neonatal rat cardiac fibroblasts (CFs), CFs treated for 48 h. The method, then:
(§1) CFs were treated for 48 h with all the new CTz derivatives in a broad concentration range (100 μM^−1 mM), and their cytotoxicity was then evaluated. In Table 3 cytotoxic concentration 50 (CC50) values for each of the synthesized compounds are shown. […] When comparing the different ZBG the series 5 is the least cytotoxic for CFs, while series 8 was the most cytotoxic.
(§2) Sprague Dawley rats were obtained from the Animal Breeding Facility of the School of Chemical and Pharmaceutical Sciences at the University of Chile. All studies followed the Guide for the Care and Use of Laboratory Animals published by the US National Institutes of Health (NIH Publication 8th, 2011), and experimental protocols were approved by the University of Chile Institutional Ethics Review Committee. CF were isolated from of 2 or 3–day–old Sprague-Dawley rats and cultured as described previously. Briefly, the neonatal rats were decapitated and their hearts were extracted under aseptic environment. Atria were removed and ventricles were cut into small pieces (~1–2 mm) for posterior colagenase II digestion. The digestion yield was separated by 10 min centrifugation at 89×g. The pellet was resuspended in 10 mL of Dulbecco’s Modified Eagle’s Medium/Nutrient F-12 (DMEM-F12) supplemented with 10% FBS and antibiotics (100 μg/mL streptomycin and 100 units/mL penicillin) and cultured in a humid atmosphere of 5% CO2 and 95% O2 at 37°C until confluence (5 days). The purity of the CFs population was assessed through the expression of several markers. CFs had positive staining against vimentin (Santa Cruz Biotechnology), while being negative against sarcomeric actin and desmin (Sigma-Aldrich). Experiments were performed on cells at passage 1. Cells were cultured in 35-mm well plates and serum starved for 24 h prior to stimulation.
(§3) To evaluate cytotoxicity, CFs were seeded in 12 microwell plates at a ratio of 2 × 10^4 cell/cm^2, cultured in DMEM–F12 medium + 10% FBS, which was subsequently replaced by DMEM–F12. After 24 h of serum starvation derivatives were applied at proper times and concentrations in accordance to experimental procedures. Cell viability assays were carried out using Alamar Blue®, a nontoxic, cell permeable non fluorescent compound that is blue in color. Viable cells reduce resazurin to resorufin, which produces very bright red fluorescence which is used as a quantitative cell viability measure. 10 μL of 0.2 mg/mL Alamar Blue® was added into each well followed by incubation for 24 h. The fluorescence of Alamar Blue® was read using microplate reader at 570 excitation and emission to 595 nm. Cell survival was expressed as percentage over the untreated cells. To evaluate CFs proliferation assay, cells were seeded as mentioned before, and after serum starvation, they were stimulated by 10% fetal bovine serum (FBS), in presence/absence of CTz derivatives for 24 h, at concentrations according to experiment. Cell proliferation was quantified by Alamar Blue®, according to protocol mentioned before. Cell proliferation was expressed as percentage over the control FBS treated cells.
On the technique in general: The colour change of resazurin is a common sign of viable cells or microbes.

Data set [3] relates to neonatal rat cardiac fibroblasts (CFs). Nature of the data set: FBS-induced cardiac fibroblast proliferation assay (Alamar Blue). The format is cell-based. The note with it: 10% FBS-induced CF proliferation, 48 h, read-out: Inhibition percentage of cell proliferation. The method, then:
CFs were treated for 48 h with 10% fetal bovine serum (FBS), to induce CFs proliferation in presence/absence of each new CTz derivatives in a concentration range of 1–10 μM. In Table 4, the inhibition percentage of cell proliferation for each concentration of the synthesized compounds are shown. All derivatives inhibited CFs proliferation induce by serum.
as §2, with “Cells were cultured in 35-mm well plates and serum starved for 24 h prior to stimulation.” left out
as §3, with “10 μL of 0.2 mg/mL Alamar Blue® was added into each well followed by incubation for 24 h.” left out, “To evaluate CFs proliferation assay, cells were seeded as mentioned before, and after serum starvation, they were stimulated by 10% fetal bovine serum (FBS), in presence/absence of CTz derivatives for 24 h, at concentrations according to experiment.” left out

The target of another data set is T2, HDAC1 human recombinant (Homo sapiens, UniProt Q13547).
T2 construct: purchased Enzo Life Science BML-AK511
T2 sequence (Q13547 whole entry): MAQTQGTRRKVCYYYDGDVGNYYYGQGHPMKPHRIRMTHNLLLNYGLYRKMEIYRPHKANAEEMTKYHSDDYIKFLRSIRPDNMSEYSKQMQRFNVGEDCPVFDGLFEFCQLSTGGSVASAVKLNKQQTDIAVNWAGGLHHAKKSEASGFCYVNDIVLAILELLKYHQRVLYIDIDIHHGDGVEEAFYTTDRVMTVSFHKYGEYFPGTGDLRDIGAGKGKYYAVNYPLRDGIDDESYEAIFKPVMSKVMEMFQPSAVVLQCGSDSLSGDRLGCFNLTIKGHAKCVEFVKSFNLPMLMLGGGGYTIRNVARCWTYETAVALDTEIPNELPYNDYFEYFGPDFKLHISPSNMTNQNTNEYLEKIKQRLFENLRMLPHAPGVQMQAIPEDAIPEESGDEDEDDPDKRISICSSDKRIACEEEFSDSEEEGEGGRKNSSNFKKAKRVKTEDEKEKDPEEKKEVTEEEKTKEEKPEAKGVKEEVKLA
Nature of the data set: HDAC1 inhibitory activity, fluorometric kit. The format is biochemical. The note with it: Class I.

Data set [4] concerns neonatal rat cardiac fibroblasts (CFs). Nature of the data set: Cytotoxicity assay (Alamar Blue) in cardiac fibroblasts. The format is cell-based. The note with it: CFs treated for 48 h. The protocol: as §1, §2, §3
Another data set deals with CFs. More on the design: method as in PMID 24631770, PMID 24374140. The note with it: cited from earlier work.
Another data set relates to HDACs. The note with it: read-out: IC50 HDAC inhibition, cited from earlier work.

The source of these data is paper PMC6412891, “Synthesis and Biological Evaluation of Novel Thiazolyl-Coumarin Derivatives as Potent Histone Deacetylase Inhibitors with Antifibrotic Activity” (Molecules, 2019).

Like-named read-outs stand apart in the source and are kept apart here.

Broadly, the IC50 is the concentration needed to halve the response being measured. The term CC50 denotes the concentration at which the toxic effect on the cells reaches its halfway point. Higher therefore signals better tolerance by the cells. As usually defined, the melting point is the temperature of the solid-liquid transition. Molecule `O=C(CCCCC1CCSS1)Nc1nc(-c2cc3cc(Br)ccc3oc2=O)cs1` (centres unmarked) [Compound 5b, 5-[1,2]-Dithiolan-3-yl-N-[4-(6-bromo-2-oxo-2H-chromen-3-yl)-thiazol-2-yl]-pentanamide] returned a melting point of 150 to 153 °C. For the same molecule, the 50% inhibitory concentration (IC50) at HDAC6 human recombinant stood at 0.123 ± 0.0051 µM. 0.0621 ± 0.0025 µM corresponded to half-maximal inhibition in [1] (IC50). Besides, the midpoint of cytotoxicity in data set [2], the CC50 at 48 h, lay at 127 ± 19.2 µM. Moreover, in data set [3], the inhibition at 1 µM is 71.5 ± 3.8%, the inhibition at 5 µM was 89.1 ± 9.5% and the inhibition at 10 µM was 96.4 ± 4.7%. Moreover, the IC50 on HDAC1 human recombinant was determined as 0.0476 ± 0.0023 µM.

`COc1ccc2oc(=O)c(-c3csc(NC(=O)CCCCC4CCSS4)n3)cc2c1` (centres unmarked) [Compound 5c, 5-[1,2]-Dithiolan-3-yl-N-[4-(6-methoxy-2-oxo-2H-chromen-3-yl)-thiazol-2-yl]-pentanamide] gave a melting point of 83 to 84 °C. The IC50 on HDAC6 human recombinant worked out at 0.0841 ± 0.0029 µM. Moreover, in data set [1], the IC50 came to 0.05 ± 0.0017 µM. In data set [2], the cytotoxic concentration (CC50) at 48 h stood at 171 ± 6.1 µM. For the same molecule, in data set [3], the inhibition at 1 µM amounted to 67 ± 8.3%, the inhibition at 5 µM was 83.2 ± 6.8% and the inhibition at 10 µM came out at 91.2 ± 3.2%. Also, the IC50 on HDAC1 human recombinant came to 0.0397 ± 0.0013 µM.

For `O=C(CCCCC(=O)Nc1nc(-c2cc3cc(Br)ccc3oc2=O)cs1)NO` [Compound 8b, 5-[4-(6-Bromo-2-oxo-2H-chromen-3-yl)-thiazol-2-yl-carbamoyl]-N-hydroxypentanamide], the IC50 at HDAC6 human recombinant came to 0.0802 ± 0.0037 µM; in data set [1], 0.0571 ± 0.0045 µM; at HDAC1 human recombinant, 0.0454 ± 0.0026 µM. The molecule also displayed a half-maximal cytotoxic concentration (CC50) at 48 h in data set [2] of 72.4 µM. In [4], this molecule had a half-maximal cytotoxic concentration (CC50) of 72.5 ± 11.6 µM. The inhibition at 1 µM in [3] was 72.7 ± 3.9%. Further, the inhibition at 5 µM in data set [3] turned out to be 94.4 ± 7%. For the same molecule, the inhibition at 10 µM in data set [3] stood at 104 ± 2.8%.

`COc1ccc2oc(=O)c(-c3csc(NC(=O)CCCCC(=O)NO)n3)cc2c1` [Compound 8c, 5-[4-(6-Methoxy-2-oxo-2H-chromen-3-yl)-thiazol-2-yl-carbamoyl]-N-hydroxypentanamide]: the melting point was 125 to 127 °C (dec.). Further, on HDAC6 human recombinant, the IC50 worked out at 0.0626 ± 0.0023 µM. Further, in [1], the IC50 came to 0.0415 ± 0.0027 µM. Besides, the CC50 at 48 h in data set [2] was 86.5 ± 5.9 µM. Moreover, in data set [3], the inhibition at 1 µM was 69.7 ± 9.1%, the inhibition at 5 µM came out at 81.8 ± 5.5% and the inhibition at 10 µM amounted to 97.7 ± 4.7%. The 50% inhibitory concentration (IC50) on HDAC1 human recombinant came to 0.0465 ± 0.0022 µM.

In the case of `CCC(=O)CCCCC[C@@H]1NC(=O)[C@H]2CCCCN2C(=O)[C@H]([C@@H](C)CC)NC(=O)[C@H](Cc2cn(OC)c3ccccc23)NC1=O` [apicidin], the “concentration shown to inhibit the proliferation of CFs” value with CFs is 3 µM.

Regarding `O=C(O)/C=C/c1ccc(O)c(O)c1` [caffeic acid], the 50% inhibitory concentration (IC50) with HDACs (catecholic derivatives) is 2540 µM.

Regarding `O=C(/C=C/c1ccc(O)c(O)c1)O[C@@H]1C[C@](O)(C(=O)O)C[C@@H](O)[C@H]1O` [chlorogenic acid], the IC50 in the data set on HDACs (catecholic derivatives) was 375 µM.

`Nc1ccccc1NC(=O)c1ccc(CNc2nccc(-c3cccnc3)n2)cc1` [mocetinostat]: the “concentration shown to inhibit the proliferation of CFs” value with CFs was 1 µM.

As to `O=C(O)CCCc1ccccc1` [phenylbutyric acid], the IC50 in the data set on HDACs (short chain fatty acids) is 620 µM.

As to `CCCC(CCC)C(=O)O` [valproic acid], the IC50 in the data set on HDACs (short chain fatty acids) was 140 µM.
